In US20240239790A1, “7-Morpholino-1,6-Naphthyridin-5-yl Derivatives and Pharmaceutical Compositions Thereof Useful as DNA-PK Inhibitor” (adMare Therapeutics Society, priority 2021, published 2024):
Like-named read-outs stand apart in the source and are kept apart here.

Columns and labels:
[1] = tested on: pDNA-PK induction in HCT116 tumour spheroids; assay: Multicellular tumour spheroid + radiation, pDNA-PK (ser2056) inhibition, immunohistochemical endpoint, HCT116; type: cell-based; details: Homo sapiens, HCT-116, 20 Gy, 2 hours following radiation, 20% O2
Outline: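 HCT116 spheroids (~0.5 mm) in MEM/10% FBS, 20% O2, 37° C., pre-incubated 1 h with compound (10 or 5 μM down to 3.5 nM), irradiated 20 Gy, then 2 h further with compound. Cryosections immunostained for pDNA-PK ser2056; EC50 is concentration halving radiation-induced pDNA-PK.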

[2] = Hepatocyte Stability Assay, mouse hepatocytes; type: in vitro ADME; details: for hepatocyte CLint at 1 uM: male, CD-1, cryopreserved hepatocytes, pH 7.3, mouse hepatocytes 0.7 million cells per mL, 1 uM compound; for Hepatocyte Stability Mouse % rem. 120 min: mouse hepatocytes
Outline: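 Pooled cryopreserved hepatocytes (male CD-1 mice, ≥10; mixed-gender human donors, ≥10) at 0.7 million viable cells/mL in Krebs-Heinslet buffer pH 7.3, compound 1 uM, ≤0.01% DMSO. Incubated at 37° C./5% CO2 up to 2 h, acetonitrile-quenched; parent peak area by HPLC-MS/MS.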

[3] = Microsomal Stability Assay, human liver microsomes; type: in vitro ADME; details: for microsomal CLint at 0.1 uM: both sexes, pH 7.4, human liver microsomes 0.1 mg/mL, 0.1 uM compound; for Microsomal Stability Human % rem. 60 min: human liver microsomes
Protocol: (§1) Samples were then mixed and centrifuged. Supernatants were used for HPLC-MS/MS analysis. […] Peak areas corresponding to the test compound were recorded.

[4] = Microsomal Stability Assay, mouse liver microsomes; type: in vitro ADME; details: for microsomal CLint at 0.1 uM: male, CD-1, pH 7.4, mouse liver microsomes 0.1 mg/mL, 0.1 uM compound; for Microsomal Stability Mouse % rem. 60 min: mouse liver microsomes
Protocol: as §1

[5] = Example 9 Study 2, read-out: Spheroid Cell line: HCT116 Immunohistochemical endpoint pDNA-PK inhibition EC50
[6] = Spheroid, Cell Line: HCT115 (so in the source), Example 7, read-out: EC50, Immunohistochemical endpoint, pDNA-PK inhibition

Structure (SMILES)	EC50 [1, 5] [nM]	EC50 [1, 6] [nM]	hepatocyte CLint at 1 uM [2] [µL/min/1e6 cells]	Hepatocyte Stability Mouse % rem. 120 min [2]	microsomal CLint at 0.1 uM [3] [µL/min/mg]	Microsomal Stability Human % rem. 60 min [3]	microsomal CLint at 0.1 uM [4] [µL/min/mg]	Microsomal Stability Mouse % rem. 60 min [4]
CN(C)C(=O)COc1ccc(C(=O)N[C@H]2CC[C@@H](Oc3nc(N4CCOCC4)cc4ncccc34)CC2)cn1 [Compound 117, 6-(2-(dimethylamino)-2-oxoethoxy)-N-((1s,4s)-4-((7-morpholino-1,6-naphthyridin-5-yl)oxy)cyclohexyl)nicotinamide]	500 to 1000	500 to 1000	< 8.2	G (% remaining = 50-75%)	> 116	E (% remaining = 0-25%)	< 116	F (% remaining = 25-50%)
CN(C)C(=O)Cn1ccc(C(=O)N[C@H]2CC[C@@H](Oc3nc(N4CCOCC4)cc4ncccc34)CC2)c1 [Compound 141, 1-(2-(dimethylamino)-2-oxoethyl)-N-((1s,4s)-4-((7-morpholino-1,6-naphthyridin-5-yl)oxy)cyclohexyl)-1H-pyrrole-3-carboxamide]	–	10 to 500	< 8.2	G (% remaining = 50-75%)	< 116	G (% remaining = 50-75%)	< 116	G (% remaining = 50-75%)
CN(C)C(=O)COc1cnc(N[C@H]2CC[C@@H](Oc3nc(N4CCOCC4)cc4ncc(NS(C)(=O)=O)cc34)CC2)nc1 [Compound 182, N,N-dimethyl-2-((2-(((1s,4s)-4-((3-(methylsulfonamido)-7-morpholino-1,6-naphthyridin-5-yl)oxy)cyclohexyl)amino)pyrimidin-5-yl)oxy)acetamide]	10 to 500	10 to 500	< 8.2	H (% remaining = 75-100%)	< 116	G (% remaining = 50-75%)	< 116	G (% remaining = 50-75%)
